These compounds were tested on HBV (assay: HBV replication inhibition assay (BDNA assay) in HepG2.2.15 cells). Conditions: Hepatitis B virus, HepG2.2.15, 144 h, encapsidated HBV DNA in supernatant at day 6, BDNA QuantiGene assay.
Assay type: cell-based
Experimental: HBV replication inhibition by the disclosed compounds were determined in cells infected or transfected with HBV or cells with stably integrated HBV, such as HepG2.2.15 cells (Sells et al. 1987). In this example, HepG2.2.15 cells were maintained in cell culture medium containing 10% fetal bovine serum (FBS), Geneticin, L-glutamine, penicillin and streptomycin. HepG2.2.15 cells were seeded in 96-well plates at a density of 40,000 cells/well and were treated with serially diluted compounds at a final DMSO concentration of 0.5% either alone or in combination by adding drugs in a checker box format. Cells were incubated with compounds for three days, after which medium was removed and fresh medium containing compounds was added to cells and incubated for another three days. At day 6, supernatant was removed and treated with DNase at 37° C. for 60 minutes, followed by enzyme inactivation at 75° C. for 15 minutes. Encapsidated HBV DNA was released from the virions and covalently linked HBV polymerase by incubating in lysis buffer (Affymetrix QS0010) containing 2.5 μg proteinase K at 50° C. for 40 minutes. HBV DNA was denatured by addition of 0.2 M NaOH and detected using a branched DNA (BDNA) QuantiGene assay kit according to manufacturer recommendation (Affymetrix). HBV DNA levels were also quantified using qPCR, based on amplification of encapsidated HBV DNA extraction with QuickExtraction Solution (Epicentre Biotechnologies) and amplification of HBV DNA using HBV specific PCR probes that can hybridize to HBV DNA and a fluorescently labeled probe for quantitation. In addition, cell viability of HepG2.2.15 cells incubated with test compounds alone or in combination was determined by using CellTitre-Glo reagent according to the manufacturer protocol (Promega). The mean background signal from wells containing only culture medium was subtracted from all other samples, and percent inhibition at each compound concentration was calculated by normalizing to signals from HepG2.2.15 cells treated with 0.5% DMSO using equation E1.
% inhibition=(DMSOave−Xi)/DMSOave×100% E1:
where DMSOave is the mean signal calculated from the wells that were treated with DMSO control (0% inhibition control) and Xi is the signal measured from the individual wells. EC50 values, effective concentrations that achieved 50% inhibitory effect, were determined by non-linear fitting using Graphpad Prism software (San Diego, Calif.) and equation E2.
Y=Ymin+(Ymax−Ymin)/(1+10(Log EC50−X)×HillSlope) E2:
where Y represents percent inhibition values and X represents the logarithm of compound concentrations.
Selected disclosed compounds were assayed in the HBV replication assay (BDNA assay), as described above, and a representative group of these active compounds is shown in Table 3.

Row | Compound | EC50 [nM]
1 | CN1CC(O)(c2ccccc2)Cn2nc3c(c2C1=O)CN(C(=O)Nc1ccc(F)c(C#N)c1)CC3 (stereo not shown) [Example 15, N-(3-Cyano-4-fluoro-phenyl)-11-hydroxy-13-methyl-14-oxo-11-phenyl-4,8,9,13-tetrazatricyclo[7.5.0.0^2,7]tetradeca-1,7-diene-4-carboxamide] | 140
2 | CN1CC(c2nnn[nH]2)Cn2nc3c(c2C1=O)CN(C(=O)Nc1ccc(F)c(C#N)c1)CC3 (stereo not shown) [Example 3, N-(3-Cyano-4-fluorophenyl)-10-methyl-11-oxo-8-(1H-tetrazol-5-yl)-3,4,8,9,10,11-hexahydro-1H-pyrido[4′,3′:3,4]pyrazolo[1,5-a][1,4]diazepine-2(7H)-carboxamide] | > 4000
3 | CN1CC(c2ccnn2C)Cn2nc3c(c2C1=O)CN(C(=O)Nc1ccc(F)c(C#N)c1)CC3 (stereo not shown) [Example 6, N-(3-Cyano-4-fluorophenyl)-10-methyl-8-(1-methyl-1H-pyrazol-5-yl)-11-oxo-3,4,8,9,10,11-hexahydro-1H-pyrido[4′,3′:3,4]pyrazolo[1,5-a][1,4]diazepine-2(7H)-carboxamide] | 83
4 | CN1CC(c2nc[nH]n2)Cn2nc3c(c2C1=O)CN(C(=O)Nc1ccc(F)c(C#N)c1)CC3 (stereo not shown) [Example 1, N-(3-Cyano-4-fluorophenyl)-10-methyl-11-oxo-8-(1H-1,2,4-triazol-3-yl)-3,4,8,9,10,11-hexahydro-1H-pyrido[4′,3′:3,4]pyrazolo[1,5-a][1,4]diazepine-2(7H)-carboxamide] | > 4000
5 | CN1CC(F)(c2ccccc2)Cn2nc3c(c2C1=O)CN(C(=O)Nc1ccc(F)c(C#N)c1)CC3 (stereo not shown) [Example 16, N-(3-Cyano-4-fluorophenyl)-8-fluoro-10-methyl-11-oxo-8-phenyl-3,4,8,9,10,11-hexahydro-1H-pyrido[4′,3′:3,4]pyrazolo[1,5-a][1,4]diazepine-2(7H)-carboxamide] | 176
6 | CN1CC(c2cc[nH]n2)Cn2nc3c(c2C1=O)CN(C(=O)Nc1ccc(F)c(Cl)c1)CC3 (stereo not shown) [Example 4, N-(3-Chloro-4-fluorophenyl)-10-methyl-11-oxo-8-(1H-pyrazol-3-yl)-3,4,8,9,10,11-hexahydro-1H-pyrido[4′,3′:3,4]pyrazolo[1,5-a][1,4]diazepine-2(7H)-carboxamide] | 93
7 | CN1CC(c2ncno2)Cn2nc3c(c2C1=O)CN(C(=O)Nc1ccc(F)c(C#N)c1)CC3 (stereo not shown) [Example 2, N-(3-Cyano-4-fluorophenyl)-10-methyl-8-(1,2,4-oxadiazol-5-yl)-11-oxo-3,4,8,9,10,11-hexahydro-1H-pyrido[4′,3′:3,4]pyrazolo[1,5-a][1,4]diazepine-2(7H)-carboxamide] | > 4000

— US20220213102A1, “DIAZEPINONE DERIVATIVES AS CAPSID ASSEMBLY MODULATORS” (Janssen Sciences Ireland Unlimited Company, priority 2019, published 2022)
